Reference: patent US8003649B2 (AstraZeneca AB, priority 2007, dated 2011)

These molecules were tested against T1, Androgen Receptor (AR) (Homo sapiens, UniProt P10275, T878A) (assay: LNCaP Androgen Receptor Down-regulation Cell Assay (immunofluorescence end point)). Details: LNCaP prostate carcinoma cells, compound incubation 20-22 hours, 50% reduction of the AR signal; read-out: Androgen Receptor Down-regulation Assay (a) IC50/μM.
T1 construct: cell based immuno-fluorescence assay using the LNCaP prostate epithelial cell line; endogenous in cells; host or cells: LNCaP clone FGC (ATCC CRL-1740)
T1 sequence (P10275 1-920 T878A): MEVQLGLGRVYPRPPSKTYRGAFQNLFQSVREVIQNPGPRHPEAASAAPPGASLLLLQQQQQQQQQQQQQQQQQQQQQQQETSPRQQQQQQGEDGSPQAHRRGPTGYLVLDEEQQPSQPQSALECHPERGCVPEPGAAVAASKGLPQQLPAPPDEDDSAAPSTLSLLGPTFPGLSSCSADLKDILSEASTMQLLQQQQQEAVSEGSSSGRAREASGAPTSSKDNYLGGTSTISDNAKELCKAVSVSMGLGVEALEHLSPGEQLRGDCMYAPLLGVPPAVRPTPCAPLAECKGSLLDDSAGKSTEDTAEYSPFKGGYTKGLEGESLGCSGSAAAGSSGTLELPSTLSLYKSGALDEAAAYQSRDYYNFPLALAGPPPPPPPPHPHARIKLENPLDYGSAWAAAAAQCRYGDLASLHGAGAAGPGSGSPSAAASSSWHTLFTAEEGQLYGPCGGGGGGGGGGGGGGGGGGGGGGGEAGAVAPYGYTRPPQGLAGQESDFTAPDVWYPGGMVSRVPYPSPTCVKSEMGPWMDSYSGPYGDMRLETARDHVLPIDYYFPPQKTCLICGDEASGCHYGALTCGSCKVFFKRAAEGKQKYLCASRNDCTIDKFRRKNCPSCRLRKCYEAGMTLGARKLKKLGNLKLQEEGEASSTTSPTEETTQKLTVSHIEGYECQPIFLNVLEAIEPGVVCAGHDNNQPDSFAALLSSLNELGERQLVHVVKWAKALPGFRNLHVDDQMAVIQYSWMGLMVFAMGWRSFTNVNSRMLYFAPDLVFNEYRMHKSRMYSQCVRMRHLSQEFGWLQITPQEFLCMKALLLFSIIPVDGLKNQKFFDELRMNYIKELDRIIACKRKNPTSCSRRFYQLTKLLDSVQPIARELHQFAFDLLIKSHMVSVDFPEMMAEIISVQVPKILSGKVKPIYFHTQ
Format: cell-based
Outline: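 LNCaP cells in medium with 5% charcoal-stripped FBS were plated overnight, then treated with a compound dilution series for 20-22 h at 37° C. After fixation, permeabilisation and immunostaining, AR-associated green fluorescence was quantified by laser-scanning microplate cytometry; AR down-regulation expressed as IC50 from fitted dose-response curves.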

| DC50 | SMILES |
| --- | --- |
| 9.6 µM | Cc1ccnc(C2(O)CCN(c3ccc4nnc(C(F)(F)F)n4n3)CC2)c1 [Example 322, 4-(4-methylpyridin-2-yl)-1-[3-(trifluoromethyl)[1,2,4]triazolo[4,3-b]pyridazin-6-yl]piperidin-4-ol] |
| > 8.1 µM | OC1(c2ccc(Cl)nc2)CCN(c2ccc3nnc(C(F)(F)F)n3n2)CC1 [Example 323, 4-(6-chloropyridin-3-yl)-1-[3-(trifluoromethyl)[1,2,4]triazolo[4,3-b]pyridazin-6-yl]piperidin-4-ol] |
| 5.9 µM | OC1(c2nccs2)CCN(c2ccc3nnc(C(F)(F)F)n3n2)CC1 [Example 324, 4-(1,3-thiazol-2-yl)-1-[3-(trifluoromethyl)[1,2,4]triazolo[4,3-b]pyridazin-6-yl]piperidin-4-ol] |
| > 1.2 µM | FC(F)(F)c1nnc2ccc(N3CCC(c4c[nH]c5ncccc45)CC3)nn12 [Example 325, 6-[4-(1H-pyrrolo[2,3-b]pyridin-3-yl)piperidin-1-yl]-3-(trifluoromethyl)[1,2,4]triazolo[4,3-b]pyridazine] |
| 2 µM | FC(F)(F)c1nnc2ccc(N3CCC(c4c[nH]c5ccncc45)CC3)nn12 [Example 326] |
| 1 µM | FC(F)(F)c1nnc2ccc(N3CCC(c4c[nH]c5cnccc45)CC3)nn12 [Example 327] |
| 0.75 µM | FC(F)(F)c1nnc2ccc(N3CCC(c4c[nH]c5cccnc45)CC3)nn12 [Example 328] |
| 2.7 µM | COC(=O)c1ccccc1C1CCN(c2ccc3nnc(C(F)(F)F)n3n2)C1 (centres unmarked) [Example 333] |
| 1.1 µM | COC(=O)c1cccc(C2CCN(c3ccc4nnc(C(F)(F)F)n4n3)C2)c1 (centres unmarked) [Example 334] |
| 1.5 µM | FC(F)(F)c1ccc(C2CCN(c3ccc4nnc(C(F)(F)Cl)n4n3)C2)cc1 (centres unmarked) [Example 335] |
| 2.4 µM | FC(F)(F)c1cccc(C2CCN(c3ccc4nnc(C(F)(F)Cl)n4n3)C2)c1 (centres unmarked) [Example 336] |
| 0.77 µM | FC(F)(Cl)c1nnc2ccc(N3CCN(c4c(Cl)cncc4Cl)CC3)nn12 [Example 339, 3-[chloro(difluoro)methyl]-6-[4-(3,5-dichloropyridin-4-yl)piperazin-1-yl][1,2,4]triazolo[4,3-b]pyridazine] |
| 2.1 µM | N#Cc1ccc(CN2CCN(c3ccc4nnc(C(F)(F)Cl)n4n3)CC2)cc1 [Example 342] |
| 1.7 µM | N#Cc1cccc(CN2CCN(c3ccc4nnc(C(F)(F)Cl)n4n3)CC2)c1 [Example 343] |
| 0.29 µM | FC(F)(Cl)c1nnc2ccc(N3CCN(Cc4cccc(Br)c4)CC3)nn12 [Example 344] |
| 1.1 µM | Fc1cccc(CN2CCN(c3ccc4nnc(C(F)(F)Cl)n4n3)CC2)c1 [Example 345] |
| 8.5 µM | FC(F)(F)c1cccc(CN2CCN(c3ccc4nnc(C(F)(F)Cl)n4n3)CC2)c1 [Example 346] |
| 0.97 µM | FC(F)(F)c1cccc(CN2CCN(c3ccc4nnc(C(F)(F)Cl)n4n3)CC2)c1 [Example 347] |
| 1 µM | FC(F)(Cl)c1nnc2ccc(N3CCN(Cc4ccc(Br)cc4)CC3)nn12 [Example 348] |
| 1.7 µM | FC(F)(Cl)c1nnc2ccc(N3CCN(CCc4ccccc4)CC3)nn12 [Example 349, 3-[chloro(difluoro)methyl]-6-[4-(2-phenylethyl)piperazin-1-yl][1,2,4]triazolo[4,3-b]pyridazine] |
| 0.74 µM | CC(c1ccccc1)N1CCN(c2ccc3nnc(C(F)(F)Cl)n3n2)CC1 (centres unmarked) [Example 350, 3-[chloro(difluoro)methyl]-6-[4-(1-Phenylethyl)piperazin-1-yl][1,2,4]triazolo[4,3-b]pyridazine] |

| DC50 | SMILES |
| --- | --- |
| 1.9 µM | FC(F)(F)c1cnc(N2CCCN(c3ccc4nnc(C(F)(F)Cl)n4n3)CC2)c(Cl)c1 [Example 351, 3-[chloro(difluoro)methyl]-6-[4-[3-chloro-5-(trifluoromethyl)pyridin-2-yl]-1,4-diazepan-1-yl][1,2,4]triazolo[4,3-b]pyridazine] |
| 0.57 µM | CC1CN(Cc2ccccc2)CCN1c1ccc2nnc(C(F)(F)Cl)n2n1 (centres unmarked) [Example 352, 6-(4-benzyl-2-methylpiperazin-1-yl)-3-[chloro(difluoro)methyl][1,2,4]triazolo[4,3-b]pyridazine] |
| 0.69 µM | Cc1cccc(C)c1N1CCN(c2ccc3nnc(C(F)(F)Cl)n3n2)CC1 [Example 353, 3-[chloro(difluoro)methyl]-6-[4-(2,6-dimethylphenyl)piperazin-1-yl][1,2,4]triazolo[4,3-b]pyridazine] |
| 2.7 µM | FC(F)(Cl)c1nnc2ccc(N3CC4CN(Cc5ccccc5)CC4C3)nn12 (centres unmarked) [Example 354, 6-(5-benzylhexahydropyrrolo[3,4-c]pyrrol-2(1H)-yl)-3-[chloro(difluoro)methyl][1,2,4]triazolo[4,3-b]pyridazine] |
| 0.72 µM | FC(F)(Cl)c1nnc2ccc(N3CCCC(c4ccccc4)CC3)nn12 (centres unmarked) [Example 355, 3-[chloro(difluoro)methyl]-6-(4-phenylazepan-1-yl)[1,2,4]triazolo[4,3-b]pyridazine] |
| 2.2 µM | FC(F)(Cl)c1nnc2ccc(N3CCN(Cc4cccs4)CC3)nn12 [Example 356, 3-[chloro(difluoro)methyl]-6-[4-(thiophen-2-ylmethyl)piperazin-1-yl][1,2,4]triazolo[4,3-b]pyridazine] |
| 2.1 µM | FC(F)(Cl)c1nnc2ccc(N3CCN(Cc4ccsc4)CC3)nn12 [Example 357, 3-[chloro(difluoro)methyl]-6-[4-(thiophen-3-ylmethyl)piperazin-1-yl][1,2,4]triazolo[4,3-b]pyridazine] |
| 6.7 µM | C[C@H]1CN(Cc2ccncc2)CCN1c1ccc2nnc(C(F)(F)F)n2n1 [Example 358, 6-[(2S)-2-methyl-4-(pyridin-4-ylmethyl)piperazin-1-yl]-3-(trifluoromethyl)[1,2,4]triazolo[4,3-b]pyridazine] |
| 2.6 µM | C[C@H]1CN(Cc2ccccn2)CCN1c1ccc2nnc(C(F)(F)F)n2n1 [Example 359] |
| 1 µM | C[C@H]1CN(Cc2cccc(Br)n2)CCN1c1ccc2nnc(C(F)(F)F)n2n1 [Example 360] |
| 4.7 µM | C[C@H]1CN(Cc2ccc(C(F)(F)F)nc2)CCN1c1ccc2nnc(C(F)(F)F)n2n1 [Example 361] |
| > 33 µM | C[C@H]1CN(Cc2cncc(F)c2)CCN1c1ccc2nnc(C(F)(F)F)n2n1 [Example 366] |
| 4.1 µM | FC(F)(F)c1nnc2ccc(N3CCN(Cc4cccc(Br)n4)CC3)nn12 [Example 367, 6-[4-[(6-bromopyridin-2-yl)methyl]piperazin-1-yl]-3-(trifluoromethyl)[1,2,4]triazolo[4,3-b]pyridazine] |
| 8.7 µM | FC(F)(F)c1nnc2ccc(N3CCN(Cc4cccnc4Cl)CC3)nn12 [Example 369] |
| 0.93 µM | FC(F)(F)c1nnc2ccc(N3CCN(Cc4ccc(Br)nc4)CC3)nn12 [Example 374, 6-[4-[(6-bromopyridin-3-yl)methyl]piperazin-1-yl]-3-(trifluoromethyl)[1,2,4]triazolo[4,3-b]pyridazine] |
| 3 µM | FC(F)(F)c1nnc2ccc(N3CCN(Cc4cccnc4Br)CC3)nn12 [Example 376] |
| 5.9 µM | FC(F)(F)c1nnc2ccc(N3CCN(Cc4cnccc4Br)CC3)nn12 [Example 377] |
| 4.2 µM | N#Cc1cc(F)c(CN2CCN(c3ccc4nnc(C(F)(F)F)n4n3)CC2)c(F)c1 [Example 380] |
| 2.1 µM | Fc1cccc(CN2CCN(c3ccc4nnc(C(F)(F)F)n4n3)CC2)c1F [Example 381] |
| 1.8 µM | Fc1ccc(CN2CCN(c3ccc4nnc(C(F)(F)F)n4n3)CC2)c(F)c1 [Example 382] |
